From PubChem BioAssay AID1259407 (Chemical Carcinogenesis Research Information System (CCRIS), 2018)
Calls of active or inactive are those of the source. The rule behind the calls is not given here.

Tested on: CCRIS mutagenicity, Ames/micronucleus/aberration tests
Experiment: CCRIS mutagenicity studies
[1] = Test System: AMES SALMONELLA TYPHIMURIUM, Strain/Indicator: TA98, Metabolic Activation: HAMSTER, LIVER, S-9, AROCLOR 1254 (10%), Method: PREINCUBATION
[2] = Test System: AMES SALMONELLA TYPHIMURIUM, Strain/Indicator: TA98, Metabolic Activation: NONE, Method: PREINCUBATION
[3] = Test System: AMES SALMONELLA TYPHIMURIUM, Strain/Indicator: TA98, Metabolic Activation: RAT, LIVER, S-9, AROCLOR 1254 (10%), Method: PREINCUBATION
[4] = Test System: AMES SALMONELLA TYPHIMURIUM, Strain/Indicator: TA100, Metabolic Activation: HAMSTER, LIVER, S-9, AROCLOR 1254 (10%), Method: PREINCUBATION
[5] = Test System: AMES SALMONELLA TYPHIMURIUM, Strain/Indicator: TA100, Metabolic Activation: NONE, Method: PREINCUBATION
[6] = Test System: AMES SALMONELLA TYPHIMURIUM, Strain/Indicator: TA100, Metabolic Activation: RAT, LIVER, S-9, AROCLOR 1254 (10%), Method: PREINCUBATION
[7] = Test System: AMES SALMONELLA TYPHIMURIUM, Strain/Indicator: TA1535, Metabolic Activation: HAMSTER, LIVER, S-9, AROCLOR 1254 (10%), Method: PREINCUBATION
[8] = Test System: AMES SALMONELLA TYPHIMURIUM, Strain/Indicator: TA1535, Metabolic Activation: NONE, Method: PREINCUBATION
[9] = Test System: AMES SALMONELLA TYPHIMURIUM, Strain/Indicator: TA1535, Metabolic Activation: NONE, Method: STANDARD PLATE
[10] = Test System: AMES SALMONELLA TYPHIMURIUM, Strain/Indicator: TA1535, Metabolic Activation: RAT, LIVER, S-9, AROCLOR 1254 (10%), Method: PREINCUBATION
[11] = Test System: AMES SALMONELLA TYPHIMURIUM, Strain/Indicator: TA1537, Metabolic Activation: HAMSTER, LIVER, S-9, AROCLOR 1254 (10%), Method: PREINCUBATION
[12] = Test System: AMES SALMONELLA TYPHIMURIUM, Strain/Indicator: TA1537, Metabolic Activation: NONE, Method: PREINCUBATION
[13] = Test System: AMES SALMONELLA TYPHIMURIUM, Strain/Indicator: TA1537, Metabolic Activation: NONE, Method: STANDARD PLATE
[14] = Test System: AMES SALMONELLA TYPHIMURIUM, Strain/Indicator: TA1537, Metabolic Activation: RAT, LIVER, S-9, AROCLOR 1254 (10%), Method: PREINCUBATION

## [N-]=[N+]=[N-]
Test System: AMES SALMONELLA TYPHIMURIUM, Strain/Indicator: TA97, Metabolic Activation: NONE, Method: STANDARD PLATE
  mutagenic call: inactive; negative
Test System: AMES SALMONELLA TYPHIMURIUM, Strain/Indicator: TA97, Metabolic Activation: RAT, LIVER, S-9, AROCLOR 1254, Method: STANDARD PLATE
  mutagenic call: inactive; negative
[1]
  mutagenic call: inactive; negative
[2]
  mutagenic call: inactive; negative
Test System: AMES SALMONELLA TYPHIMURIUM, Strain/Indicator: TA98, Metabolic Activation: NONE, Method: SPIRAL ASSAY
  mutagenic call: inactive; negative
Test System: AMES SALMONELLA TYPHIMURIUM, Strain/Indicator: TA98, Metabolic Activation: NONE, Method: STANDARD PLATE
  mutagenic call: inactive; negative
Test System: AMES SALMONELLA TYPHIMURIUM, Strain/Indicator: TA98, Metabolic Activation: RAT, LIVER, S-9, ACRYLAMIDE, Method: STANDARD PLATE
  mutagenic call: active; positive
[3]
  mutagenic call: inactive; negative
Test System: AMES SALMONELLA TYPHIMURIUM, Strain/Indicator: TA98, Metabolic Activation: RAT, LIVER, S-9, AROCLOR 1254, Method: SPIRAL ASSAY
  mutagenic call: inactive; negative
Test System: AMES SALMONELLA TYPHIMURIUM, Strain/Indicator: TA98, Metabolic Activation: RAT, LIVER, S-9, AROCLOR 1254, Method: STANDARD PLATE
  mutagenic call: inactive; negative
[4]
  mutagenic call: active; positive
[5]
  mutagenic call: active; positive
Test System: AMES SALMONELLA TYPHIMURIUM, Strain/Indicator: TA100, Metabolic Activation: NONE, Method: SPIRAL ASSAY
  mutagenic call: active; positive
Test System: AMES SALMONELLA TYPHIMURIUM, Strain/Indicator: TA100, Metabolic Activation: RAT, LIVER, S-9, ACRYLAMIDE, Method: STANDARD PLATE
  mutagenic call: active; positive
[6]
  mutagenic call: active; positive
Test System: AMES SALMONELLA TYPHIMURIUM, Strain/Indicator: TA100, Metabolic Activation: RAT, LIVER, S-9, AROCLOR 1254, Method: SPIRAL ASSAY
  mutagenic call: active; positive
Test System: AMES SALMONELLA TYPHIMURIUM, Strain/Indicator: TA100, Metabolic Activation: RAT, LIVER, S-9, PCB, Method: PREINCUBATION
  mutagenic call: active; positive
Test System: AMES SALMONELLA TYPHIMURIUM, Strain/Indicator: TA1530, Metabolic Activation: NONE, Method: STANDARD PLATE
  mutagenic call: active; positive
[7]
  mutagenic call: active; positive
[8]
  mutagenic call: active; positive
Test System: AMES SALMONELLA TYPHIMURIUM, Strain/Indicator: TA1535, Metabolic Activation: NONE, Method: SPIRAL ASSAY
  mutagenic call: active; positive
[9]
  mutagenic call: active; positive
[10]
  mutagenic call: active; positive
Test System: AMES SALMONELLA TYPHIMURIUM, Strain/Indicator: TA1535, Metabolic Activation: RAT, LIVER, S-9, AROCLOR 1254, Method: SPIRAL ASSAY
  mutagenic call: active; positive
Test System: AMES SALMONELLA TYPHIMURIUM, Strain/Indicator: TA1535, Metabolic Activation: RAT, LIVER, S-9, AROCLOR 1254, Method: STANDARD PLATE
  mutagenic call: active; positive
[11]
  mutagenic call: inactive; negative
[12]
  mutagenic call: inactive; negative
[13]
  mutagenic call: inactive; negative
[14]
  mutagenic call: inactive; negative
Test System: AMES SALMONELLA TYPHIMURIUM, Strain/Indicator: TA1537, Metabolic Activation: RAT, LIVER, S-9, AROCLOR 1254, Method: STANDARD PLATE
  mutagenic call: inactive; negative
Test System: AMES SALMONELLA TYPHIMURIUM, Strain/Indicator: TA1538, Metabolic Activation: HAMSTER, LIVER, S-9, AROCLOR 1254 (10%), Method: PREINCUBATION
  mutagenic call: inactive; negative
Test System: AMES SALMONELLA TYPHIMURIUM, Strain/Indicator: TA1538, Metabolic Activation: NONE, Method: PREINCUBATION
  mutagenic call: inactive; negative
Test System: AMES SALMONELLA TYPHIMURIUM, Strain/Indicator: TA1538, Metabolic Activation: RAT, LIVER, S-9, AROCLOR 1254 (10%), Method: PREINCUBATION
  mutagenic call: inactive; negative
Test System: Ames Salmonella typhimurium, Strain/Indicator: TA1975P, Metabolic Activation: None, Method: Preincubation
  mutagenic call: active; positive (at higher doses)
Test System: E. COLI, Strain/Indicator: AB2500, Metabolic Activation: NONE, Method: STANDARD PLATE
  mutagenic call: inactive; negative
Test System: E. COLI, Strain/Indicator: WP2 UVRA, Metabolic Activation: HAMSTER, LIVER, S-9, AROCLOR 1254, Method: STANDARD PLATE
  mutagenic call: inactive; negative
Test System: E. COLI, Strain/Indicator: WP2 UVRA, Metabolic Activation: HAMSTER, LIVER, S-9, Method: STANDARD PLATE
  mutagenic call: inactive; negative
Test System: E. COLI, Strain/Indicator: WP2 UVRA, Metabolic Activation: MOUSE, LIVER, S-9, AROCLOR 1254, Method: STANDARD PLATE
  mutagenic call: inactive; negative
Test System: E. COLI, Strain/Indicator: WP2 UVRA, Metabolic Activation: MOUSE, LIVER, S-9, Method: STANDARD PLATE
  mutagenic call: inactive; negative
Test System: E. COLI, Strain/Indicator: WP2 UVRA, Metabolic Activation: NONE, Method: STANDARD PLATE
  mutagenic call: inactive; negative
Test System: E. COLI, Strain/Indicator: WP2 UVRA, Metabolic Activation: RAT, LIVER, S-9, AROCLOR 1254, Method: STANDARD PLATE
  mutagenic call: inactive; negative
Test System: E. COLI, Strain/Indicator: WP2 UVRA, Metabolic Activation: RAT, LIVER, S-9, Method: STANDARD PLATE
  mutagenic call: inactive; negative
Test System: MOUSE LYMPHOMA, Strain/Indicator: L5178Y (TK+/TK-), Metabolic Activation: NONE, Method: SUSPENSION/PLATE
  mutagenic call: active; positive

## Oc1ccc(Cl)cc1Cc1ccccc1
[1]
  mutagenic call: inactive; negative
[2]
  mutagenic call: inactive; negative
[3]
  mutagenic call: inactive; negative
[4]
  mutagenic call: inactive; negative
[5]
  mutagenic call: inactive; negative
[6]
  mutagenic call: inactive; negative
[7]
  mutagenic call: inactive; negative
[8]
  mutagenic call: inactive; negative
[10]
  mutagenic call: inactive; negative
[11]
  mutagenic call: inactive; negative
[12]
  mutagenic call: inactive; negative
[14]
  mutagenic call: inactive; negative

## C(CCC1CO1)CC1CO1 (stereo unspecified)
Test System: AMES SALMONELLA TYPHIMURIUM, Strain/Indicator: TA97A, Metabolic Activation: NONE, Method: STANDARD PLATE
  mutagenic call: active; positive
Test System: AMES SALMONELLA TYPHIMURIUM, Strain/Indicator: TA100, Metabolic Activation: NONE, Method: STANDARD PLATE
  mutagenic call: active; positive
Test System: AMES SALMONELLA TYPHIMURIUM, Strain/Indicator: TA102, Metabolic Activation: NONE, Method: STANDARD PLATE
  mutagenic call: active; positive
Test System: AMES SALMONELLA TYPHIMURIUM, Strain/Indicator: TA102, Metabolic Activation: RAT LIVER S-9, AROCLOR 1254, Method: STANDARD PLATE
  mutagenic call: active; positive
[9]
  mutagenic call: active; positive
[13]
  mutagenic call: inactive; negative
